In PMC8838460, “Expression, Purification, and Comparative Inhibition of Helicobacter pylori Urease by Regio-Selectively Alkylated Benzimidazole 2-Thione Derivatives” (Molecules, 2022):
Where two headings read alike, the source gives them in different places.

Assays:
Rat [1] = details: TOPKAT structural similar compounds, cited from earlier work
Rat [2] = details: TOPKAT structural similar compounds; ref CPDB; cited from earlier work
Mouse = tested on: Mouse; design: method as in earlier work; details: TOPKAT structural similar compounds; ref CPDB; cited from earlier work
fibroblast cells = assay: In vitro cytotoxicity, neutral red assay on fibroblast cells; format: cell-based; details: for inhibition at 0.003 µM: Conc. 0.003 µM; for inhibition at 0.007 µM: Conc. 0.007 µM; for inhibition at 0.015 µM: Conc. 0.015 µM; for inhibition at 0.031 µM: Conc. 0.031 µM; for inhibition at 0.064 µM: Conc. 0.064 µM; for inhibition at 0.123 µM: Conc. 0.123 µM; for cytotoxicity (in words): in high concentrations
Protocol: The active compounds were selected and subjected to cytotoxicity evaluation using the neutral red assay. Cytotoxic assays were performed according to Borenfreund and Puerner.

H. pylori Urease = H. pylori Urease (Helicobacter pylori, UniProt P69996); assay: Urease inhibition assay (indophenol method) on recombinant H. pylori urease; format: biochemical; details: for Type of inhibition (in words): H. pylori urease; for Vmax: H. pylori urease with inhibitor
Protocol: (§1) Reaction mixtures comprising 25 μL of urease enzymes solution and 55 μL of sodium phosphate buffers containing 100 mM urea were incubated with 5 μL of tested compounds above (0.5 mM concentration) at 30 °C for 15 min in 96-well plates. Urease activity was determined by measuring the ammonia production using the indophenol method as described by Weatherburn. Briefly, 45 μL of each phenol reagent (1% w/v phenol and 0.005% w/v sodium nitroprussside) and 70 μL of alkali reagent (0.5% w/v NaOH and 0.1% active chloride NaOCl) were added to each well. The absorbance at 630 nm was measured after 50 min using a microplate reader (SPECTRO star Nano, Ortenberg, Germany). All reactions were performed in triplicate in a final volume of 200 μL. The results (change in absorbance per min) were processed by using MARS Data Analysis Version 2.41, software (SPECTRO star Nano, Ortenberg, Germany).
(§2) The assays were performed at pH 6.8. The percentage of inhibitions were calculated from the formula 100 − (ODtest well/ODcontrol) × 100. Thiourea was used as the standard inhibitor of Urease.
(§3) The concentrations of the test compounds that inhibited the hydrolysis of substrates by 50% (IC50) were determined by monitoring the effect of various concentrations of these compounds in the assays on the inhibition values. The IC50 values were then calculated using Graph Pad Prism 6 software.

J. bean Urease = target: T1, J. bean Urease (Canavalia ensiformis, UniProt P07374); assay: Urease inhibition assay (indophenol method) on commercial Jack bean urease; format: biochemical; details: for Type of inhibition (in words): J. bean urease; for Vmax: J. bean urease with inhibitor
T1 construct: purchased
Protocol: as §1, §2, §3

T1 sequence (P07374 whole entry, looked up): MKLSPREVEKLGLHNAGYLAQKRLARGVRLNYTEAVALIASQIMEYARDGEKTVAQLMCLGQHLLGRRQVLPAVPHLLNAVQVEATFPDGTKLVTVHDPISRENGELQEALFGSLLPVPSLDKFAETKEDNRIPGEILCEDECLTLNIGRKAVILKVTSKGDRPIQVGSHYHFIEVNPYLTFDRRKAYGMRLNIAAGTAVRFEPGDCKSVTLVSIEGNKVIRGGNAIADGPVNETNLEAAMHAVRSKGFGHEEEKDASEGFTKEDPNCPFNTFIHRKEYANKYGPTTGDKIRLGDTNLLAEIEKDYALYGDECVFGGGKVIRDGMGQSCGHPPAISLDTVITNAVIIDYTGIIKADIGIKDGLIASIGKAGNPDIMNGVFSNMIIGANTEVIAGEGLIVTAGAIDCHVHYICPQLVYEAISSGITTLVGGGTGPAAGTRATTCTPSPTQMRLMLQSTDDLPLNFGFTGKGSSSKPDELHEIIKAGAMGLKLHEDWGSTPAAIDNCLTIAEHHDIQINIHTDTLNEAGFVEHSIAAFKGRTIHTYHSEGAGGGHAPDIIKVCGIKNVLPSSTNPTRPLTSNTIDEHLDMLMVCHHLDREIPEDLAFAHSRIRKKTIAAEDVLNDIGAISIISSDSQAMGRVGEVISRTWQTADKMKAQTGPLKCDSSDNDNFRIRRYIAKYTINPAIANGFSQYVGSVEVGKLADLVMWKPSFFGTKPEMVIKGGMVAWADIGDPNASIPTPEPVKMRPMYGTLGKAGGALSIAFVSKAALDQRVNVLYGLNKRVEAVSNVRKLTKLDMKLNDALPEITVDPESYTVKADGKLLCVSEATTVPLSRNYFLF
Chain of H. pylori Urease (P69996 whole entry): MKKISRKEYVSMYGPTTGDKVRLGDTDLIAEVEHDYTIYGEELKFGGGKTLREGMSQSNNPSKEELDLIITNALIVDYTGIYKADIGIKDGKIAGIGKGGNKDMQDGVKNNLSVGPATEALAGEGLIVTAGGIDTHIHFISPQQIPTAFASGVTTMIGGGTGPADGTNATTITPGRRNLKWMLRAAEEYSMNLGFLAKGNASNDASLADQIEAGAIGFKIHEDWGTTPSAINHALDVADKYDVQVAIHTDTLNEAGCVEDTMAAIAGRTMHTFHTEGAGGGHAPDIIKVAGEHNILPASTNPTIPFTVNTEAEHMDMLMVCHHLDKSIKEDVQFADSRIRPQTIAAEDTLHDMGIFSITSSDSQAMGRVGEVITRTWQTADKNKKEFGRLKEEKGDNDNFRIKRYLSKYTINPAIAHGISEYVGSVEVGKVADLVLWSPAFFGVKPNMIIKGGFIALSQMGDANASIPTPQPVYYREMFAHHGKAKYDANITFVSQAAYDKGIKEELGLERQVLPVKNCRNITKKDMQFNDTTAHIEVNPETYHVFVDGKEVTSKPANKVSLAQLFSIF
Chain of H. pylori Urease (P14916 whole entry, further chain): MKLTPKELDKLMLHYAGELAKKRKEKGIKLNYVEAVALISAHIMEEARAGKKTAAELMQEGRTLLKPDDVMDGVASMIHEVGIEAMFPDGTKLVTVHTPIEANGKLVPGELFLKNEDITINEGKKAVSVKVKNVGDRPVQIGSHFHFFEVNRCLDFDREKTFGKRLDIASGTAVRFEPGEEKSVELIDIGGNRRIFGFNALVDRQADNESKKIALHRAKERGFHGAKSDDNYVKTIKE

## CCOCSc1nc2ccccc2n1COCC
other
  melting point: 108 °C

## N#CCSc1nc2ccccc2n1CC#N
other
  melting point: 161 to 163 °C

## OCCCSc1nc2ccccc2[nH]1
other
  melting point: 119 °C

## CC(O)CSc1nc2ccccc2[nH]1 (stereo not drawn)
other
  melting point: 250 °C

## CCCCCCCCCCCSc1nc2ccccc2[nH]1
other
  melting point: 104 °C

## CCOC(CSc1nc2ccccc2[nH]1)OCC
other
  melting point: 80 °C

## CCCCSc1nc2ccccc2[nH]1
other
  melting point: 145 °C

## c1ccc2[nH]c(SCC3CO3)nc2c1 (stereo not drawn)
other
  melting point: 211 °C

## NC(=O)Nc1ccccc1
Rat [1]; ref IIFBA4 12;195;69
  Actual Endpoint (-log C), Rat Oral LD50: 1.833 -log C

## CC(O)CN (stereo not drawn) [1-AMINO-2-PROPANOL]
Rat [1]; ref JACTDZ 6(1);53;87
  Actual Endpoint (-log C), Rat Oral LD50: 1.554 -log C

## NC(=S)Nc1ccccc1 [1-PHENYL-2-THIOUREA]
Rat [1]; ref JMPCAS 4;109;61
  Actual Endpoint (-log C), Rat Oral LD50: 4.705 -log C

## Sc1nc2ccccc2s1 [2-Mercaptobenzothiazole]
Rat [2]
  Actual Endpoint (-log C), Carcinogenic Potency TD50 Rat: 2.687 -log C

## CC(N)=O [Acetamide]
Mouse
  Actual Endpoint (-log C), Carcinogenic Potency TD50 Mouse: 1.293 -log C
Rat [2]
  Actual Endpoint (-log C), Carcinogenic Potency TD50 Rat: 2.516 -log C

## CC(=O)Nc1ccc(O)cc1 [Acetaminophen, reference compound]
Rat [2]
  Actual Endpoint (-log C), Carcinogenic Potency TD50 Rat: 2.485 -log C

## Oc1ccccc1O [Catechol]
Mouse
  Actual Endpoint (-log C), Carcinogenic Potency TD50 Mouse: 2.654 -log C

## CC(C)(Oc1ccc(C2CC2(Cl)Cl)cc1)C(=O)O (stereo not drawn) [Ciprofibrate, reference compound]
Mouse
  Actual Endpoint (-log C), Carcinogenic Potency TD50 Mouse: 4.669 -log C

## Sc1nc2ccccc2[nH]1 [Compound 2, 1H-Benzimidazole-2(3H)-thione]
Fibroblast cells; Fibroblast
  inhibition at 0.009 µM: 20%
Fibroblast cells; fibroblast cells
  inhibition at 0.003 µM: 40.4%
  inhibition at 0.007 µM: 44%
  inhibition at 0.015 µM: 49.4%
  inhibition at 0.031 µM: 49.5%
  inhibition at 0.064 µM: 80.6%
  inhibition at 0.123 µM: 82.5%
  cytotoxicity (in words): not cytotoxic
H. pylori Urease
  Type of inhibition (in words): non-competitive
  Vmax: 1.54 ± 0.057 µmol/min
J. bean Urease
  IC50: 260 ± 8 µM
  Type of inhibition (in words): non-competitive
  Vmax: 1.53 ± 0.005 µmol/min

## CCOCn1c(=S)[nH]c2ccccc21 [Compound 5, 1-(Ethoxymethyl)-1H-benzo[d]imidazole-2(3H)-thione]
Fibroblast cells; fibroblast cells
  inhibition at 0.003 µM: -28.8%
  inhibition at 0.007 µM: -15.9%
  inhibition at 0.015 µM: 4.6%
  inhibition at 0.031 µM: 26.2%
  inhibition at 0.064 µM: 52.1%
  inhibition at 0.123 µM: 53.5%
  cytotoxicity (in words): not cytotoxic
Fibroblast cells; fibroblast cells, Conc. 0.009 µM, read-out: % Inhibition
  inhibition at 0.009 µM: -61.2%
H. pylori Urease
  Type of inhibition (in words): uncompetitive
  Vmax: 1.52 ± 0.024 µmol/min
J. bean Urease
  IC50: 290 ± 18 µM
  Type of inhibition (in words): non-competitive
  Vmax: 1.60 ± 0.04 µmol/min

## O=c1ccc(=O)[nH][nH]1 [MALEIC HYDRAZIDE]
Rat [1]; ref WRPCA2 9;119;70
  Actual Endpoint (-log C), Rat Oral LD50: 1.47 -log C

## CNN [METHYLHYDRAZINE]
Rat [1]; ref XAWPA2 CWL
  Actual Endpoint (-log C), Rat Oral LD50: 3.158 -log C

## CC(=O)NN [Monoacetyl hydrazine]
Mouse
  Actual Endpoint (-log C), Carcinogenic Potency TD50 Mouse: 3.876 -log C

## CCOc1ccc(NC(C)=O)cc1 [Phenacetin, reference compound]
Rat [2]
  Actual Endpoint (-log C), Carcinogenic Potency TD50 Rat: 2.156 -log C

## S=C1NCCC(COc2ccccc2)O1 (stereo not drawn) [TIFEMOXONE, reference compound]
Rat [1]; ref ATSUDG 1;229;78
  Actual Endpoint (-log C), Rat Oral LD50: 2.006 -log C

## CC(=N)S [Thioacetamide]
Rat [2]
  Actual Endpoint (-log C), Carcinogenic Potency TD50 Rat: 3.815 -log C

## Cc1cccc(NC(N)=O)c1 [m-TOLYLUREA]
Rat [1]; ref IIFBA4 12;195;69
  Actual Endpoint (-log C), Rat Oral LD50: 2.053 -log C

## CCOc1ccccc1C(N)=O [o-Ethoxybenzamide]
Mouse
  Actual Endpoint (-log C), Carcinogenic Potency TD50 Mouse: 2.508 -log C

## O=Nc1ccc(Nc2ccccc2)cc1 [p-Nitrosodiphenylamine]
Rat [2]
  Actual Endpoint (-log C), Carcinogenic Potency TD50 Rat: 2.994 -log C

## Cc1ccc(NC(N)=O)cc1 [p-Tolylurea]
Mouse
  Actual Endpoint (-log C), Carcinogenic Potency TD50 Mouse: 2.863 -log C

## Methylhydrazine s
Mouse
  Actual Endpoint (-log C), Carcinogenic Potency TD50 Mouse: 3.785 -log C
